Data taken from patent publication US4377574A, “Contraceptive treatment of male mammals” (The Salk Institute For Biological Studies, priority 1981, dated 1983).
Where a SMILES comes first, the peptide text is derived from it. [ ]: non-standard residue; d: D form. dPhe(4-Cl) = N[C@H](Cc1ccc(Cl)cc1)C(=O)O; NMeL = CN[C@@H](CC(C)C)C(=O)O; ΔPro = O=C(O)[C@@H]1C=CCN1

Key:
[1] = test system: pituitary gland of mammalians; details: cited from earlier work
male rats = assay: contraceptive treatment of male rats, 14-day daily injection; format: in vivo, rat; details: 14-day treatment
Excerpt: The peptide is used at a level effective to reduce testes and seminal vesicles weights and also to inhibit spermatogenesis after a 14-day administration to male rats. […] Prostate weights of male rats recover in 2-3 weeks and seminal vesicles weights in 4-5 weeks. It is preferred to use dosage levels in the range of from about 0.1 to about 1 milligram per rat per day, which can be administered without detrimental side effects.
Male rats (about 320 grams each) are each treated with 1 milligram of the peptide synthesized in Example I, once a day, for 14 days by injection in 0.2 ml. of corn oil. All the rats show a decrease in testes and seminal vesicles weight, spermatogenesis and plasma androgen levels.
Full recovery of testes and seminal vesicle weights and spermatogenesis ultimately occurs following cessation of the 14-day peptide administration. […] Fertility, as assessed by the ability to impregnate females, is restored in all of the rats which have not been sacrificed within 6 weeks after cessation of the injections.
A first group (I) of male rats (about 320 grams each) are each treated with 1 milligram of Peptide A synthesized in Example III, every day for 14 days, by injection in 0.2 ml. of corn oil. All the rats show a decrease in testes and seminal vesicles weight, spermatogenesis and plasma androgen levels. […]

Compound | potency as an inhibitor for the release of gonadotropins relative to the same peptide with Gly in the 6-position [1] [times] | side effects / damage (male rats)
[des His^2, D--Ala^6 ] LRF | 3 | –
CC(=O)N1CC=C[C@H]1C(=O)N[C@H](Cc1ccc(Cl)cc1)C(=O)N[C@H](Cc1c[nH]c2ccccc12)C(=O)N[C@@H](CO)C(=O)N[C@@H](Cc1ccc(O)cc1)C(=O)N[C@H](Cc1c[nH]c2ccccc12)C(=O)N(C)[C@@H](CC(C)C)C(=O)N[C@@H](CCCNC(=N)N)C(=O)N1CCC[C@H]1C(=O)NCC(N)=O [Example I, [Ac--dehydro Pro^1, pCl--D--Phe^2,D--Trp^3,6,N^α MeLeu^7]--LRF] (Ac-[ΔPro][dPhe(4-Cl)][dW]SY[dW][NMeL]RPG-NH2) | – | without harmful side effects or irreversible damage
